Values of other authors, collected in US9801827B2, “Dosage forms for administering combinations of drugs” (Pozen Inc., priority 2006, dated 2017).

Details: pharmacokinetic half-life, given as examples of long acting NSAIDs

SMILES | half-life
CCc1cccc2c3c([nH]c12)C(CC)(CC(=O)O)OCC3 (stereo not drawn) [etodolac] | about 7 hours
O=C(c1ccccc1)c1ccc2n1CCC2C(=O)O (stereo not drawn) [ketorolac] | 8 to 9 h
COc1ccc2cc(CCC(C)=O)ccc2c1 [nabumetone] | 22 to 30 h
O=C(O)CCc1nc(-c2ccccc2)c(-c2ccccc2)o1 [oxaprozin] | 42 to 50 h

Continued, values first:

half-life | SMILES
about 6 hours | CC(C(=O)O)c1ccc(-c2ccccc2)c(F)c1 (stereo not drawn) [flurbiprofen]
up to 4 hours | Cc1cccc(Nc2ccccc2C(=O)O)c1C [mefenamic acid]
